PubChem BioAssay (NCI)
Values joined by “and” are separate entries in the source; they are usually repeats but may differ in a detail not shown here. Equal values may be shown once.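 Results reflect a 48-hour exposure of cells in 96-well plates to compound at five concentrations. GI50 is the concentration that inhibits growth by half. Definition used: TGI = concentration required for complete inhibition of growth.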

tested on: HCT-15 colon; test: NCI anticancer screen, dose series, 48 h

Q: With `Cc1cc(C)cc(C(=O)Nc2cccc(-c3cn(-c4ccc(S(N)(=O)=O)cc4)nn3)c2)c1` as the molecule, how does the GI50 read?
A: Its GI50 is over 10000 nM.

Q: And the TGI?
A: Its TGI is over 10000 nM.

tested on: K-562 leukemia; test: NCI anticancer screen, dose series, 48 h

Q: Which results are given for `Cc1cc(C)cc(C(=O)Nc2cccc(-c3cn(-c4ccc(S(N)(=O)=O)cc4)nn3)c2)c1`?
A: GI50: 2920 nM; TGI: > 10000 nM

tested on: MDA-MB-468 breast; test: NCI anticancer screen, dose series, 48 h

Q: What does the source list for `COc1cc(/C=C2\C(=O)N(c3c(Cl)cccc3Cl)c3ccccc32)cc(OC)c1O`?
A: GI50: 2270 nM; TGI: 12900 nM

Q: With `Cc1ccc(NC2=C(Cl)C(=O)c3nc(C)ccc3C2=O)cc1` as the molecule, how does the GI50 read?
A: Its GI50 is 329 nM.

Q: What about the TGI of the same molecule?
A: Its TGI is 1310 nM.

Q: How did the GI50 turn out when `CCn1c2ccccc2c2cc(-n3nncc3-c3ccccc3)ccc21` was run?
A: The GI50 was 437 nM.

Q: What about the TGI of the same molecule?
A: The TGI was over 100000 nM.

Q: `O=C(Nc1ccc(-n2cc(-c3ccncc3)c(-c3ccc(Cl)c(O)c3)n2)cc1)c1cc(Cl)cc(Cl)c1` was tested. Which GI50 did it give?
A: The GI50 was 6070 nM.

Q: What about the TGI of the same molecule?
A: The TGI was over 100000 nM.

Q: For `Nc1cc(C(F)F)c(-c2nc(N3[C@@H]4CC[C@H]3COC4)nc(N3[C@@H]4CC[C@H]3COC4)n2)cn1`, which GI50 is on record?
A: The GI50 was 249 nM.

Q: And the TGI?
A: Its TGI is 3030 nM.

Q: Which results are given for `NC(N)=NC(N)=NCCc1ccccc1`?
A: GI50: 6580 nM and 15000 nM; TGI: 94900 nM and > 100000 nM

Q: Which GI50 does the source give for `C=CCSc1n[nH]c(-c2cccs2)n1` here?
A: Its GI50 is over 100000 nM.

Q: And the TGI?
A: Its TGI is over 100000 nM.

Q: Which results are given for `O=C(Oc1ccc([N+](=O)[O-])cc1)N1CCC(C(O)(c2ccc3c(c2)OCO3)c2ccc3c(c2)OCO3)CC1`?
A: GI50: > 100000 nM; TGI: > 100000 nM

Q: Which GI50 does the source give for `COc1cc2cc(C(=O)O)[nH]c2cc1OCc1ccccc1` here?
A: Its GI50 is over 100000 nM.

Q: What about the TGI of the same molecule?
A: The TGI was over 100000 nM.

Q: What does the source list for `O=[N+]([O-])c1ccc2nc(N/N=C/c3ccc(O)cc3)sc2c1`?
A: GI50: 3910 nM; TGI: 20800 nM

Q: What does the source list for `C#C[C@]1(O)CC[C@H]2[C@@H]3CC=C4c5nc(Nc6ccc(OC)cc6OC)sc5CC[C@]4(C)[C@H]3CC[C@@]21C`?
A: GI50: 1840 nM; TGI: 4080 nM

Q: `NC(=O)c1c(OCc2c(F)cc(Br)cc2F)nsc1NC(=O)NCCCCN1CCCC1` was tested. Which GI50 did it give?
A: Its GI50 is 1490 nM.

Q: And the TGI?
A: Its TGI is 3180 nM.

Q: What does the source list for `COCCOC(C)C(/C=N/NC(N)=S)=N/NC(N)=S` (configuration not stated)?
A: GI50: 21.7 nM; TGI: > 100000 nM

Q: `COc1cc2c(cc1OC)C(Sc1ccc(F)cc1)c1c(nc(N)c(C#N)c1N)O2` (configuration not stated) was tested. Which GI50 did it give?
A: Its GI50 is 511 nM.

Q: And the TGI?
A: Its TGI is 1840 nM.

Q: What does the source list for `CS(=O)(=O)c1ccc(C(F)(F)F)cc1NC(=O)Nc1cnc(Oc2ccc(-c3cc(Cl)cnc3N)cc2)nc1`?
A: GI50: 2020 nM; TGI: 7000 nM

Q: How did the GI50 turn out when `Cc1oc2c(c1C(=O)c1ccccc1)C(=O)c1ccccc1C2=O` was run?
A: Its GI50 is 1740 nM.

Q: What about the TGI of the same molecule?
A: Its TGI is 3260 nM.

Q: With `CCCn1cnc2c(c1=N)C(c1ccc(OC)cc1)c1sc3c(CC)cccc3c1O2` (configuration not stated) as the molecule, how does the GI50 read?
A: Its GI50 is 422 nM.

Q: And the TGI?
A: Its TGI is 4270 nM.

Q: With `O=[N+]([O-])c1ccc(N(CCO)CCO)c2c1no[n+]2[O-]` as the molecule, how does the GI50 read?
A: Its GI50 is 625 nM.

Q: What about the TGI of the same molecule?
A: Its TGI is 2860 nM.

Q: For `CCN(C)S(=O)(=O)Nc1cccc(Nc2ncnc3cc(NC(=O)CCl)ccc23)c1Cl`, which GI50 is on record?
A: Its GI50 is 2340 nM.

Q: What about the TGI of the same molecule?
A: Its TGI is 6700 nM.

Q: How did the GI50 turn out when `CC/C(=C(\c1ccc(O)cc1)c1ccc(OCCNC)cc1)c1ccccc1` was run?
A: Its GI50 is 1590 nM and 1530 nM and 1510 nM.

Q: What about the TGI of the same molecule?
A: Its TGI is 3200 nM and 2980 nM and 3210 nM.

Q: Which results are given for `Cc1cc(N2CCN(C)CC2)nc(NC2CCCC(Nc3ccnc4cc(Cl)ccc34)C2)n1` (configuration not stated)?
A: GI50: 1670 nM; TGI: 4360 nM

Q: Which results are given for `Cc1ccnc2c1NC(=O)c1cccnc1N2C1CC1`?
A: GI50: > 100000 nM; TGI: > 100000 nM

Q: With `N#CC1=C(N)Oc2c(sc3c(F)cccc23)C1c1ccc([N+](=O)[O-])cc1` (configuration not stated) as the molecule, how does the GI50 read?
A: The GI50 was 78.7 nM.

Q: And the TGI?
A: The TGI was 902 nM.

Q: How did the GI50 turn out when `O=C1C(Nc2ccccn2)=C(I)C(=O)c2ncccc21` was run?
A: The GI50 was 1220 nM.

Q: What about the TGI of the same molecule?
A: The TGI was 2770 nM.

Q: Which results are given for `N#Cc1cccc(Nc2nccc(-c3cnn4ncccc34)n2)c1`?
A: GI50: 8.04 nM; TGI: 29.3 nM

Q: Which results are given for `CCOC(=O)C(=Cc1ccc(Br)cc1)C(=O)OCC`?
A: GI50: 1670 nM; TGI: 3450 nM

Q: How did the GI50 turn out when `CN(C)CCCC1(c2ccc(F)cc2)OCc2cc(-c3ccc4cc[nH]c4c3)ccc21` (configuration not stated) was run?
A: The GI50 was 1750 nM.

Q: What about the TGI of the same molecule?
A: Its TGI is 3440 nM.

Q: `O=C(N/N=C/c1cc2ccccc2c2ccccc12)c1cc(O)c(O)c(O)c1` was tested. Which GI50 did it give?
A: Its GI50 is 2460 nM.

Q: What about the TGI of the same molecule?
A: Its TGI is 6880 nM.

Q: `O=S(=O)(Nc1ccc(Cl)c(C(F)(F)F)c1)c1ccc(-c2cnc(C3CC3)o2)cc1` was tested. Which GI50 did it give?
A: Its GI50 is 144 nM.

Q: And the TGI?
A: The TGI was 3100 nM.

Q: How did the GI50 turn out when `C=CC(=O)Nc1cc2c(Nc3ccc(OCc4ccccn4)c(Cl)c3)ncnc2cc1OCCN1CCOCC1` was run?
A: Its GI50 is 14.3 nM.

Q: And the TGI?
A: The TGI was 282 nM.

Q: `C[C@]12CC[C@@H]3c4ccc(O)cc4CC[C@H]3[C@@H]1CC[C@@H]2NS(=O)(=O)c1cccc(Br)c1` was tested. Which GI50 did it give?
A: The GI50 was 2430 nM.

Q: What about the TGI of the same molecule?
A: The TGI was 11500 nM.

Q: Which results are given for `O=C1Nc2ccccc2SC1C1SC(=S)N(Cc2ccccc2)C1=O` (configuration not stated)?
A: GI50: 1050 nM; TGI: 23400 nM

Q: What does the source list for `N#Cc1ccc(-n2cnc(NC(=O)[C@H]3CCN(C#N)C3)c2)cc1`?
A: GI50: 337 nM; TGI: 2450 nM

Q: `COC(=O)c1c2c(c(C)[n+]([O-])c1C)C(=O)C(NCc1ccc(F)c(Cl)c1)=CC2=O` was tested. Which GI50 did it give?
A: The GI50 was 1120 nM.

Q: And the TGI?
A: The TGI was 3040 nM.

Q: `O=C(NNc1nc2cc(F)ccc2n2c(CN3CC4(COC4)C3)ccc12)c1cnccn1` was tested. Which GI50 did it give?
A: Its GI50 is 302 nM.

Q: And the TGI?
A: Its TGI is 1240 nM.

Q: For `CCOC(=O)c1c(C)c2c(n1C)CSc1cc(S(=O)(=O)c3ccccc3)c(=O)[nH]c1-2`, which GI50 is on record?
A: The GI50 was 14200 nM.

Q: What about the TGI of the same molecule?
A: The TGI was over 100000 nM.

Q: What does the source list for `Cc1cc(NC(=O)CCc2ccc(N3C(N)=NC(N)=NC3(C)C)cc2)ccc1S(=O)(=O)F`?
A: GI50: 736 nM; TGI: > 82900 nM

tested on: MOLT-4 leukemia; test: NCI anticancer screen, dose series, 48 h

Q: How did the GI50 turn out when `Cc1cc(C)cc(C(=O)Nc2cccc(-c3cn(-c4ccc(S(N)(=O)=O)cc4)nn3)c2)c1` was run?
A: Its GI50 is 5580 nM.

Q: And the TGI?
A: The TGI was over 10000 nM.

tested on: SR leukemia; test: NCI anticancer screen, dose series, 48 h

Q: How did the GI50 turn out when `Cc1cc(C)cc(C(=O)Nc2cccc(-c3cn(-c4ccc(S(N)(=O)=O)cc4)nn3)c2)c1` was run?
A: The GI50 was 1830 nM.

Q: What about the TGI of the same molecule?
A: Its TGI is over 10000 nM.
